| melting point | SMILES |
| --- | --- |
| 138 °C | Cc1cc(Cc2cc(C(C)(C)CC(C)(C)C)cc(C(C)(C)CC(C)(C)C)c2O)c(O)c(-n2nc3ccccc3n2)c1 |
| 133 °C | C[C@@H]1Cc2ccsc2[C@H](C)N1CCNC(=O)c1ccc(NC(=O)C(C)(C)C)cc1 (relative stereo) |
| 85 °C | CNC(=S)NS(=O)(=O)c1cc(CCNC(=O)c2cnc3ccccc3c2)ccc1OC |
| > 300 °C | COc1cc2cc3c(Cl)c(C#N)cnc3nc2cc1OC |
| 136 °C | COCCOC(=O)Nc1cc(N2CC=CCC2)nc(N)n1 |
| 194 °C | COc1ccc(C(C)=O)cc1C(C)=CC(=O)O |
| 171 °C | CC1=C(c2ccc(C(=O)N3Cc4ccc(C(=O)C(Cl)(Cl)Cl)n4Cc4ccccc43)cc2)CCCC1 |
| 313 °C | Cc1ccc2nc(C)c(C3=NNC(=O)CO3)n2c1 |
| 163 to 166 °C | CN1CCC(c2cccc3c2C[C@H](NC(=O)c2ccc(C(F)(F)F)cc2)CC3)CC1 |
| 99 to 103 °C | O=C(Nc1ccc2scnc2c1C1CCN(C/C=C/c2ccc(Cl)cc2)CC1)c1ccnc(Cl)c1 |
| 156 to 158 °C | Cc1ccc(C(=O)NC(NC(=S)Nc2cccnc2)c2ccccc2)cc1 (centres undefined) |
| 220 to 222 °C | CN1CCN(c2ccc(-c3nc4c(N[C@H]5[C@@H](C(N)=O)[C@@H]6C=C[C@H]5C6)ccnc4[nH]3)cc2)CC1 |
| > 230 °C | CN1CSC(=Cc2ccc(O)c(C(C)(C)C)c2)C1=O |
| 144 to 145 °C | CC=CC=NNC(=O)c1cccnc1 |
| 161 to 162 °C | COc1cc2c(cc1OC(C)=O)CCC1C2CCC2(C)C1C=CC21OCCO1 (centres undefined) |
| 104 °C | O=S(=O)(Cl)c1cc(S(=O)(=O)Cl)c(Cl)cc1Cl |
| 62 to 63 °C | O=C(c1ccccc1)c1ccc(SC(Cl)(Cl)Cl)cc1 |
| 107 to 109 °C | CC[C@@H](c1ccccc1)N(Cc1ccc(C(=O)OC)cc1)S(=O)(=O)c1ccc(F)cc1 |
| 179 to 181 °C | Nc1nc(Cl)cnc1-c1cccc(Cl)c1Cl |
| 85 to 87 °C | CCCCCCCCCCCCCC(=O)NCCOCCn1c(CCOC)nc2c(N)nc3ccccc3c21 |
| 134 to 136 °C | CCCCCCCCCCCCCCCCCCOc1cc(OCC(=O)O)cc(C(=O)N(CC(=O)O)CC(=O)O)c1 |
| 206 °C | O=C(O)Cc1c([N+](=O)[O-])ccc2c1O[C@@H](CNCc1ccccc1)CO2 |
| 148 to 153 °C | CN(C)CCNCCn1nc2c3c(c(NCCNCCO)ccc31)C(=O)c1c(O)ccc(O)c1-2 |

| melting point | SMILES |
| --- | --- |
| 63 to 65 °C | Cc1nc(NC(=O)Cc2ccccc2)sc1C(=O)NCc1ccccc1 |
| 225 °C | CS(=O)(=O)c1ccc(-n2nc(-c3ccc4c(c3)CCN(C3CCC3)CC4)ccc2=O)cc1 |
| 136 to 138 °C | CC[C@H](C)C(OCc1ccccc1F)[C@H]1[C@H]([N+](=O)[O-])[C@H](c2ccccc2)N[C@@H]1C(=O)NCCC(=O)O (some centres undefined) |
| 175 to 176 °C | Cc1cc(Br)cnc1CCCCNC1=NS(=O)N=C1NCc1ccccc1 (centres undefined) |
| 175 °C | Cc1nccc2c3ccc(OCc4ccc(F)cc4)cc3n(Cc3ccc(F)cc3)c12 |
| 119 to 121 °C | CC(C)(C)NC(=O)[C@@H]1C[C@H](Sc2ccccc2)CN1C(=O)OC(C)(C)C |
| 236 to 237 °C | COC(=O)c1nc(NC(=O)Nc2ccccc2)ccc1Oc1nc(OC)cc(OC)n1 |
| 116 to 119 °C | CCC(O)CN1N=C(c2ccc(Cl)cc2)C2CCC2C1=O (centres undefined) |
| 222 to 224 °C | NC(=O)c1c(Cl)c(-c2ccccc2)n2c1CN(S(=O)(=O)c1ccc(-c3ccccn3)s1)CC2 |
| 117 to 118 °C | CCCC[C@]1(CC)CS(=O)(=O)c2cc(O)c(O)cc2[C@@H](c2ccccc2)N1 |
| 206 to 208 °C | COc1ccnc(CCc2nc3cc(-c4ccc(O)cc4)cnc3[nH]2)c1 |
| 233 to 235 °C | COc1cc2c(cc1Br)C1=C(c3cccs3)C3CSCCN(C(C)(C)C)C(=O)C3N1CC2 (centres undefined) |
| 152 to 155 °C | C[C@H](NC(=O)CS)C(=O)N1CCC[C@H]1C(=O)O |
| 120 to 121 °C | COc1cc(NC(=O)CCCCCN2CCN(c3ccccn3)CC2)c2nccc(C)c2c1 |
| 110 to 112 °C | CCC(C)Cn1c(=O)n(C)c(=O)c2c1nc(C)n2C(=O)OC (centres undefined) |
| 68 to 69 °C | Cc1ccc(S(=O)(=O)Oc2ccc(CN3CCOCC3)nc2)cc1 |
| 173 to 175 °C | Cc1ccccc1NC(=O)Nc1ccc(CC(=O)NC(CC(C)C)C2=NOC(CCC(=O)O)(CCC(=O)O)C2)cc1 (centres undefined) |
| 233 to 235 °C | CC(=O)OC1=C(c2ccc(C)cc2)Sc2cc(C)ccc2NC1=O |
| 227 to 228 °C | CC(C)(C)C(NC(=O)COc1ccccc1)Nc1c(Nc2cccnc2)c(=O)c1=O (centres undefined) |
| 174 to 176 °C | Cn1ncnc1COc1nn2c(-c3ccccc3)nnc2c(Cl)c1N1CCCC1 |
| 186 to 188 °C | Cc1cccc2c1nc(-c1cccnc1)n2Cc1c(F)cccc1F |
| 108 to 109 °C | CCOC(=O)c1cc2cc(-c3ccc(C(C)O)cc3)ccc2o1 (centres undefined) |
| 131 °C | CCCC(=O)Nc1cc(C(=O)NC2CCN(C(C)CC(C(=O)N(C)C)(c3ccccc3)c3ccccc3)CC2OC)c(OC)cc1Cl (centres undefined) |

| melting point | SMILES |
| --- | --- |
| 80 to 81 °C | c1cc2c3c(cccc3c1)NN=N2 |
| 142 to 143 °C | O=C1C=C(C(F)(F)F)N(Br)CN1c1ccc(C(F)(F)F)cn1 |
| 174 to 176 °C | CC(C)C[C@H](NC(=O)c1ccc2c(c1)Nc1ccccc1S2)C(=O)N[C@@H](CC(C)C)C(=O)N[C@@H](CC(C)C)C(=O)N[C@H]1CCOC1O (some centres undefined) |
| 177 to 178 °C | Cc1cc([C@@H](O)[C@@H](C)N2CCC(O)(c3ccc(C(F)(F)F)cc3)CC2)cc(C)c1O[Si](C(C)C)(C(C)C)C(C)C (relative stereo) |
| 149 to 152 °C | Cc1cccc(Cl)c1NC(=O)Nc1cc(N[C@H]2CC[C@H](O)CC2)ncn1 |
| 91 to 92 °C | CCOC(=O)C(C)(C(=O)OCC)c1ccc(N)c(C(C(=O)OC)C(=O)OC)c1 |
| 102 to 103 °C | CC(Br)C(=O)NC(C)(C)c1ccccc1 (centres undefined) |
| 157 to 158 °C | N#Cc1c(N)n[nH]c1N1CCN(Cc2ccccc2)CC1 |
| 250 to 252 °C | COc1ccc2c(c1)C=C(/C=C/C=C/C=C/C(=O)O)CO2 |
| 117 to 119 °C | C[C@H](C(=O)N[C@@H](COC(=O)C(C)(C)C)Cc1ccccc1)c1ccc(NS(C)(=O)=O)c(F)c1 |
| 155 °C | CC1(C)Cc2nc(N3CCOc4ccc(Br)cc43)sc2C(=O)N1 |
| 36 to 37 °C | CCCC(=O)NCCCc1cccc(OCC2CC2)c1 |
| 88 to 90 °C | Cc1csc(N)c1S(=O)(=O)CC#N |
| 124 to 125 °C | O[C@H](CCc1cccnc1)COc1ccc(-c2ccc(F)cc2)cc1 |
| 59 to 61 °C | ONCc1coc(-c2ccccc2)n1 |
| 100 to 103 °C | O=C(NCCCCCO)c1cc([N+](=O)[O-])cc([N+](=O)[O-])c1Cl |
| 122 to 123 °C | N#Cc1ccc(-c2cccc(C=O)c2)cc1 |
| 144 to 145 °C | Cc1c(Br)ccc(OC(=O)C(C)(C)C)c1C(=O)O |
| 199 to 204 °C | Cc1cnc2c(NC(=O)c3ccccc3[N+](=O)[O-])cccc2c1-n1ccnc1 |
| 88 to 90 °C | CC1(C)Cc2ccc(F)cc2C=[N+]1[O-] |
| 106 °C | COc1ccc(-c2nc(S(=O)(=O)c3ccccc3)[nH]c2-c2ccc(OC)cc2)cc1 |
| 140 °C | COc1cc(OC)nc(Oc2cccc(Oc3nc(OC)cc(OC)n3)c2C)n1 |
| 144 to 146 °C | CSc1ccc(-c2c(Cl)nc(Cl)nc2-c2ccc(Cl)cc2)cc1 |

| melting point | SMILES |
| --- | --- |
| 93 °C | CSc1csc2c1CCN(C)CC2c1ccccc1 (centres undefined) |
| > 280 °C | O=c1[nH]cnc2c(Br)c(Cl)sc12 |
| 146 to 148 °C | O=C1CCC(=O)N1SCc1ccc([N+](=O)[O-])cc1 |
| 168 to 169 °C | COC(=O)C(SC)c1ccc(N2C(=O)c3ccccc3C2=O)cc1 (centres undefined) |
| 114 to 125 °C | C(=C\c1c[nH]c2ccccc12)/c1cc(/C=C/c2ccccc2OCc2ccccn2)[nH]n1 |
| 137 to 142 °C | CC(C)(C)Nc1c[nH]c2ccccc12 |
| 191 to 193 °C | Cc1c(C)n(CCc2ccccc2)c(C)c(C(=O)Nc2ccccc2)c1=O |
| 165 to 166 °C | NS(=O)(=O)c1ccc(-n2nc(C(F)(F)F)cc2-c2ccc(F)cc2)cc1 |
| 82 °C | Cc1c(C=O)cccc1-n1cccc1 |
| 103 to 106 °C | CC1(C)COC(=O)N1Cc1ccccc1[N+](=O)[O-] |
| 184 to 185 °C | CCCCCC(CC(=O)Nc1cc(C(=O)NC(=O)c2ccncc2)ccc1C(C)(C)C)c1ccc(OC)cc1OC (centres undefined) |
| 135 to 137 °C | CCCc1c(OCCCCCc2ccc3cc(OC)c(OC)cc3c2)ccc(C(=O)O)c1O |
| 96 to 98 °C | O=[N+]([O-])c1ccc2c(c1)COCC2 |
| 144 to 145 °C | COc1cc(C(=O)c2nccn2C)cc([N+](=O)[O-])c1OC |
| 247 to 249 °C | Cc1nccn1-c1cnc2[nH]cc(C(=O)C(C)(C)C)c2n1 |
| 170 °C | CCOC(=O)C1=C(CCN2C(=O)c3ccccc3C2=O)NC(CCN2C(=O)c3ccccc3C2=O)=C(C(=O)OCC)C1c1ccccc1Cl |
| 146 to 148 °C | CCCc1c(OCCCOc2cccc(NC(=O)C(=O)O)c2C)ccc(C(C)=O)c1O |
| 216 to 218 °C | COc1ccc(C(=O)Sc2ccc(C(=O)O)cc2)cc1C1(C)CCCCC1 |
| 202 to 205 °C | COc1cc2c(cc1OC)CCC(C(=N)NO)=C2 |
| 168 °C | O=[N+]([O-])c1ccc(N(CCBr)S(=O)(=O)c2ccccc2)cc1 |
| 169 to 170 °C | OCCNc1c(Br)cnc2cc(Cl)ccc12 |

| SMILES | melting point |
| --- | --- |
| Cc1ccc(C(=O)CBr)o1 | 60 to 63 °C |
| COc1nccnc1C1(Cl)CN2CCC1CC2 (centres undefined) | 59 to 60 °C |
| CC(=O)C1CCC2C3CC(C)C4CC(O)CCC4(C)C3C(O)CC12C (centres undefined) | 211 to 213 °C |
| CNC(=O)C(Br)CCBr (centres undefined) | 48 to 49 °C |

Reference: a melting point compilation (Tetko et al.; mined from patent text by program, amines drawn as free bases though some values may be those of a salt)
